The values that follow come from ChEMBL document CHEMBL4196082, “2-Aryl benzimidazoles: Synthesis, In vitro α-amylase inhibitory activity, and molecular docking study” (Eur J Med Chem, 2018).

This test has as its target T1, Alpha amylase (Homo sapiens, UniProt P0DUB6).
T1 sequence (P0DUB6 whole entry): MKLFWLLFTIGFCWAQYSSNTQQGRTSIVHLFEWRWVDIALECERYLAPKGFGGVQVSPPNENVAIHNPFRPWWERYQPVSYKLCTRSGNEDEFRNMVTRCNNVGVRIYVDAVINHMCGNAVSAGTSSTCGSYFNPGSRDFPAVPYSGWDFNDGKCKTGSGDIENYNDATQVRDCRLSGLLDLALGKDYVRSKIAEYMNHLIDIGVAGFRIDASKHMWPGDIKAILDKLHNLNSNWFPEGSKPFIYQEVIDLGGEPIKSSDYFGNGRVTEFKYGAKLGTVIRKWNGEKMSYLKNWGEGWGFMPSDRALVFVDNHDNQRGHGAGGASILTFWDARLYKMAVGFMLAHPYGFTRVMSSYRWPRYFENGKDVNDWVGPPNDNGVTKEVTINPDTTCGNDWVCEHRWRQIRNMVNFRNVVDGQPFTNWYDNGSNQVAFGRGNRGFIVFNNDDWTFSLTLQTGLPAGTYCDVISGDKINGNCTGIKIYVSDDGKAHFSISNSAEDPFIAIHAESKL
The test is described as follows: Inhibition of alpha-amylase (unknown origin) using starch as substrate preincubated for 10 mins followed by substrate addition measured after 10 mins by dinitrosalicylic acid reagent-based assay.
The term IC50 denotes the concentration that inhibits the measured activity by half. A high value points to weaker potency. Turning to `O=[N+]([O-])c1ccc2[nH]c(-c3cc(Br)ccc3F)nc2c1`, the 50% inhibitory concentration (IC50) was determined as 2310 nM.
Next, `COc1cccc(-c2nc3cc(C)c(C)cc3[nH]2)c1Cl`: 2840 nM.
Next, `COc1cc(-c2nc3cc(F)ccc3[nH]2)cc(OC)c1O`: 2490 nM.
Next, `COc1ccc(-c2nc3cc(Cl)ccc3[nH]2)c(F)c1`: 2740 nM; `COc1cccc(-c2nc3ccccc3[nH]2)c1Cl`: 2740 nM.
`COc1ccc(Br)c(-c2nc3ccccc3[nH]2)c1O` registered an IC50 of 2480 nM. The IC50 values of the last two compounds are within 1.5-fold of each other.
Next, `COc1ccc(Br)cc1-c1nc2cc(Cl)ccc2[nH]1`: 2620 nM; `COc1ccc(Br)c(-c2nc3cc([N+](=O)[O-])ccc3[nH]2)c1O`: 2290 nM.
Under `COc1ccc(Br)c(-c2nc3cc(F)ccc3[nH]2)c1O` stands 2170 nM; under `COc1cc(-c2nc3cc(Cl)ccc3[nH]2)cc(OC)c1O`, 2520 nM.
Next, `Cc1cc2nc(-c3cc(Cl)cc(Cl)c3O)[nH]c2cc1C`: 2980 nM; `COc1cc(-c2nc3cc([N+](=O)[O-])ccc3[nH]2)ccc1OC(C)=O`: 1730 nM.
In the case of `COc1ccc(Br)cc1-c1nc2cc(F)ccc2[nH]1`, the 50% inhibitory concentration (IC50) was 2600 nM.
`COc1ccc(Br)c(-c2nc3cc(C)c(C)cc3[nH]2)c1O` had an IC50 of 2260 nM.
Next, `COc1cc(-c2nc3cc(Cl)ccc3[nH]2)cc(I)c1O`: 1610 nM.
Next, `COc1ccc(-c2nc3cc([N+](=O)[O-])ccc3[nH]2)c(F)c1`: 2750 nM; `COc1cc(-c2nc3cc([N+](=O)[O-])ccc3[nH]2)cc(I)c1O`: 1720 nM.
Under `COc1cc(-c2nc3cc(F)ccc3[nH]2)ccc1OC(C)=O` stands 1680 nM; under `COc1cc(Br)c(-c2nc3ccccc3[nH]2)cc1OC`, 1510 nM.
`COc1ccc(-c2nc3cc(C)c(C)cc3[nH]2)c(F)c1` had an IC50 of 2780 nM.
Next, `Oc1ccc(-c2nc3cc(F)ccc3[nH]2)c(O)c1O`: 2540 nM.
`COc1cc(Br)c(-c2nc3cc(Cl)ccc3[nH]2)cc1OC`: the IC50 came to 1730 nM.
Take `COc1cc(-c2nc3cc(Cl)ccc3[nH]2)ccc1OC(C)=O`: the IC50 turned out to be 1680 nM.
Under `COc1cc(-c2nc3cc(C)c(C)cc3[nH]2)cc(I)c1O` stands 1770 nM.
Under `Oc1ccc(-c2nc3cc(F)ccc3[nH]2)c(O)c1` stands 2980 nM.
Under `COc1cc(Br)c(-c2nc3cc([N+](=O)[O-])ccc3[nH]2)cc1OC` stands 1870 nM.
With `COc1ccc(-c2nc3cc(Cl)ccc3[nH]2)c(Cl)c1OC`, the IC50 was determined as 1510 nM. The IC50 values of the last two compounds are within 1.5-fold of each other.
Under `Oc1c(Br)cc(Cl)cc1-c1nc2cc(Cl)ccc2[nH]1` stands 2860 nM.
Next, `COc1cccc(-c2nc3cc(F)ccc3[nH]2)c1Cl`: 2620 nM.
Under `Oc1c(Cl)cc(Cl)cc1-c1nc2cc(F)ccc2[nH]1` stands 2870 nM; under `COc1cccc(-c2nc3cc([N+](=O)[O-])ccc3[nH]2)c1Cl`, 2780 nM; under `Oc1c(Br)cc(Cl)cc1-c1nc2cc(F)ccc2[nH]1`, 2860 nM.
Regarding `Oc1c(Br)cc(Cl)cc1-c1nc2ccccc2[nH]1`, the IC50 amounted to 2850 nM.
Under `COc1cc(Br)c(-c2nc3cc(C)c(C)cc3[nH]2)cc1OC` stands 1480 nM; under `Cc1cc2nc(-c3cc(Cl)cc(Br)c3O)[nH]c2cc1C`, 2920 nM.
Under `COc1cccc(-c2nc3cc(Cl)ccc3[nH]2)c1Cl` stands 2780 nM; under `O=[N+]([O-])c1ccc2[nH]c(-c3cc(Cl)cc(Br)c3O)nc2c1`, 2870 nM.
Take `COc1cc(-c2nc3cc(Cl)ccc3[nH]2)cc(OC)c1Br`: the concentration for half-maximal inhibition (IC50) was 1620 nM.
Next, `COc1cc(Br)c(-c2nc3cc(F)ccc3[nH]2)cc1OC`: 1570 nM; `COc1ccc(Br)c(-c2nc3cc(Cl)ccc3[nH]2)c1O`: 2210 nM; `COc1ccc(-c2nc3cc(F)ccc3[nH]2)c(Cl)c1OC`: 2560 nM.
Next, `COc1ccc(-c2nc3cc(F)ccc3[nH]2)c(F)c1`: 1590 nM; `Cc1cc2nc(-c3cc(O)ccc3O)[nH]c2cc1C`: 2990 nM.
Next, `COc1ccc(-c2nc3cc(C)c(C)cc3[nH]2)c(OC)c1OC`: 2300 nM; `COc1cc(-c2nc3cc(C)c(C)cc3[nH]2)cc(OC)c1Br`: 1590 nM.
